According to US20240425491A1, “HETEROARYL COMPOUNDS USEFUL IN THE TREATMENT OF COGNITIVE DISORDERS” (University College Cardiff Consultants Limited, priority 2021, published 2024):

Key:
[1] = molecular target: T1, human recombinant GABAAR containing α5β3γ2 subunits (benzodiazepine site) (Homo sapiens, UniProt P18507+P31644); assay: In vitro radioligand binding assay (α5-GABAAR Ki); conditions: inhibition of [3H]Ro15-1788 binding, membranes of L(tk−) cells expressing human α5β3γ2; read-out: α5-GABAAR Ki
T1 construct: expressed in transfected cells; host or cells: mouse L(tk−) cells, dexamethasone-inducible vector pMSGneo
Outline: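 Displacement of 4 nM [^3H]flumazenil from the benzodiazepine site, read by filtration and scintillation, gave IC50, converted to Ki (Cheng-Prusoff, saturation-derived Kd). Receptor: human α5β3γ2 membranes from L(tk^−) cells, 50 μg protein/well; 1 h, 4° C; TP003 1 μM defined nonspecific binding.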

[2] = molecular target: T2, human α5β3γ2 GABAARs in mouse L(tk−) cells (Homo sapiens, UniProt P18507+P31644); assay: In vitro electrophysiological recording assay (α5-GABAAR relative efficacy), QPatch; type: cell-based; conditions: GABA EC10-20
T2 construct: expressed in transfected cells; host or cells: mouse L(tk−) cells, dexamethasone-inducible vector pMSGneo
Outline: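 Whole-cell QPatch recordings at 20-22° C, −65 mV holding, in dexamethasone-induced (1 μM, 24 h) L(tk−) cells. Compound pre-applied ≥1 min, then co-applied with GABA EC10-20; percentage change in leak-corrected peak current, taken at ≥100× Ki, normalised to DMCM efficacy; 0.1% DMSO final.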

[3] = molecular target: T3, human α5β3γ2L GABAA receptors in HEK293 cells (Homo sapiens, UniProt P18507+P31644); assay: In vitro electrophysiological recording assay (α5-GABAAR relative efficacy), SyncroPatch; type: cell-based; conditions: Conc 0.1 μM; GABA EC10-20
T3 construct: expressed in transfected cells
Source text: Mouse L(tk^−) cells stably expressing human α1β3γ2, α2β3γ2, α3β3γ2, α5β3γ2 GABAARs generated by transfection of the individual subunits in the dexamethasone-inducible expression vector pMSGneo in mouse L(tk^−) cells (Hadingham et al., 1993, Mol. Pharmacol. 43:970-975 and 1993, Mol. Pharmacol. 44:1211-1218) were used for binding and functional assays. For certain compounds, HEK293 cells stable expressing the human α1β3γ2L, α2β3γ2L, α3β3γ2L and α5β3γ2L GABAA receptors were used to evaluate their functional effects in a SyncroPatch electrophysiology assay.
The efficacy of modulators was evaluated using either the automated patch-clamp platform QPatch16 (Sophion, Copenhagen, Denmark) or the SyncroPatch 384i (Nanion Technologies, Germany). Cells were harvested from flasks by enzymatic dissociation and re-suspended in serum-free medium.
For the Syncropatch recordings, a stacked addition protocol was used, in which GABA was rapidly applied and then washed off from the cell. All experiments were carried out at room temperature (20-22° C.) using a standard whole cell procedure. The currents recorded were acquired at 2 kHz and filtered using a Bessel filter. Whole-cell currents were measured at a holding potential of −80 mV.
For Syncropatch recordings, the extracellular recording solution contained: 140 mM NaCl, 4 mM KCl, 2 mM CaCl2), 1 mM MgCl2, 10 mM HEPES, 5 mM glucose (pH 7.4 and osmolarity of c. 300-310 mOsm/L). The intracellular recording solution contained: 90 mM KCl, 50 mM KF, 1.5 mM MgCl2, 11.1 mM EGTA and 10 mM HEPES (pH 7.2 and osmolarity of c. 300 mOsm/L). 2 mM of NaATP was added to the intracellular solution on the day of testing.
The effects of modulators were evaluated in the presence of a submaximal GABA concentration, giving typically 10-20% activation (GABA EC10-20) of the response elicited by a saturating GABA concentration. For QPatch recordings, to check and ensure baseline current stability before compound addition, five consecutive applications of GABA EC10-20 alone (each application with a 2 s duration, separated by minimum 1 min wash off periods) were performed before compound addition. The test compound was applied using the pipetting system of the QPatch system 1 min at least prior to co-application with GABA EC10-20. For SyncroPatch recordings, GABA EC20 alone was applied three times (1 s long applications, with wash steps in-between) before compound addition. This was followed by a 1-2 min pre-incubation with the test compound and then re-application of GABA EC10-20 in the presence of the compound. Finally, following a further wash step, a saturating concentration of GABA was applied, allowing the accurate evaluation for each cell of the percentage baseline activation elicited by the submaximal GABA applied.
The compounds were first dissolved in DMSO as a 10 mM stock and then further diluted to the testing concentrations so that the final DMSO concentration in the extracellular recording solution was kept constant at 0.1% for the QPatch recordings, or 0.2% for the SyncroPatch recordings.
The % efficacy of modulators was determined from the GABA elicited currents recorded in the presence and absence of the test compound, using the formula:
[((compound peak current−leak)−(GABA peak current−leak))/(GABA peak current−leak)]*100,
where ‘leak’ is the leak baseline current at −65 mV, ‘compound peak current’ is the current elicited by co-application of compound and GABA, and ‘GABA peak current’ is the current elicited by GABA alone during the 5th GABA application. The results were presented as ‘relative efficacy’ for each compound generally at a concentration equal or higher than 100 times their determined Ki. The relative efficacy of a compound was calculated by normalising its efficacy to the efficacy of methyl-6,7-dimethoxy-4-ethyl-beta-carboline-3-carboxylate (DMCM) that was separately determined produced an attenuation of GABA-induced currents of −57±4%, n=5.

T1 sequence (P31644 32-462): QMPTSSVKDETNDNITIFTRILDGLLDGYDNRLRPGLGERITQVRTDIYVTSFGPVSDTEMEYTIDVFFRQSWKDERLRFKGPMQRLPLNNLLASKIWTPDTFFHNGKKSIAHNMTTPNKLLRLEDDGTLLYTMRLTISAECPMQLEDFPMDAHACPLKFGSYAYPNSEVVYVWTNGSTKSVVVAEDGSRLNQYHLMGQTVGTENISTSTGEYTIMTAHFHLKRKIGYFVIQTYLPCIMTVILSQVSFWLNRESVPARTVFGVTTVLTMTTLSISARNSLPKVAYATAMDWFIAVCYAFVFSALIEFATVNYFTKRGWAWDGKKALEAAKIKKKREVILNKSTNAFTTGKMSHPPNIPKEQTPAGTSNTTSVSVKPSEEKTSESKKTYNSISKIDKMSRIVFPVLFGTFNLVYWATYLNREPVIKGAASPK
T1 sequence (P28472 26-473 partner): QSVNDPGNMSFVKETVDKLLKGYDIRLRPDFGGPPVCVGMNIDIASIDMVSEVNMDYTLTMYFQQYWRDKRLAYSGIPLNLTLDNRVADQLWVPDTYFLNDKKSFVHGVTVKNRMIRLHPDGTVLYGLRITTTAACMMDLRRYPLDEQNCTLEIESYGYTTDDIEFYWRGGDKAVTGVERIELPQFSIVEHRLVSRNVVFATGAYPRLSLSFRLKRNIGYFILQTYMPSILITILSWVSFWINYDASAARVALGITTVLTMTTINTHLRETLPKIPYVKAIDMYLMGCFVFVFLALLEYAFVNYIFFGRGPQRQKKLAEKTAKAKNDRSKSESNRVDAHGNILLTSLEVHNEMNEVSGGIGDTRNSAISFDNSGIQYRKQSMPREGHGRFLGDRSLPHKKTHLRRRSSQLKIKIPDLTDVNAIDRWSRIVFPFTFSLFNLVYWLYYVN
T1 sequence (P18507 40-475): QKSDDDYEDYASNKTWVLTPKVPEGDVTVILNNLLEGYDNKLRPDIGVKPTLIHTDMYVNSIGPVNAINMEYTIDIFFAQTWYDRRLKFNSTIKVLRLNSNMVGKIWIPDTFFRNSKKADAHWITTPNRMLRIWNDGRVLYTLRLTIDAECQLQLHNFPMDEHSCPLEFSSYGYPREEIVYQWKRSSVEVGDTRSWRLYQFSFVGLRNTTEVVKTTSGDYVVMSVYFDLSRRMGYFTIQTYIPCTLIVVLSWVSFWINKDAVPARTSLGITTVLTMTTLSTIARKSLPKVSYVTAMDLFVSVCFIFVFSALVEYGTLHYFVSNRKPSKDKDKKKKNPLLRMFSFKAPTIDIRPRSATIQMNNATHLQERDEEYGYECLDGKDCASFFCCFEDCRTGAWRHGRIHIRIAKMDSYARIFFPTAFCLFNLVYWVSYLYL
T3 sequence (P31644 32-462): as the sequence (P31644 32-462) above
T3 sequence (P28472 26-473 partner): as the sequence (P28472 26-473 partner) above
T3 sequence (P18507 40-475): as the sequence (P18507 40-475) above
T2 sequence (P31644 32-462): as the sequence (P31644 32-462) above
T2 sequence (P28472 26-473 partner): as the sequence (P28472 26-473 partner) above
T2 sequence (P18507 40-475): as the sequence (P18507 40-475) above

SMILES	Ki [1]	α5-GABAAR Relative Efficacy (to DMCM), Qpatch ([2]; Conc 1 μM)	α5-GABAAR Relative Efficacy (to DMCM), SyncroPatch [3]	α5-GABAAR Relative Efficacy (to DMCM), Qpatch ([2]; Conc 0.1 μM)	α5-GABAAR Relative Efficacy (to DMCM), Qpatch ([2]; Conc 0.3 μM)	α5-GABAAR Relative Efficacy (to DMCM), Qpatch ([2]; Conc 3 μM)
COc1nc(-c2cnn(C)c2)ccc1NC(=O)c1c(-c2ccccc2)noc1C [Example 4, N-[2-Methoxy-6-(1-methylpyrazol-4-yl)-3-pyridyl]-5-methyl-3-phenyl-isoxazole-4-carboxamide]	29.7 nM	−0.68	−0.36			
COc1nc(-c2cnc(N)nc2)ccc1NC(=O)c1c(-c2ccccc2)noc1C [Example 43, N-[6-(2-Aminopyrimidin-5-yl)-2-methoxy-3-pyridyl]-5-methyl-3-phenyl-isoxazole-4-carboxamide]	0.5 nM		−0.90	−0.76		
CNc1ncc(-c2ccc(NC(=O)c3c(-c4ccccc4)noc3C)c(OC)n2)cn1 [Example 47, N-[2-Methoxy-6-[2-(methylamino)pyrimidin-5-yl]-3-pyridyl]-5-methyl-3-phenyl-isoxazole-4-carboxamide]	0.8 nM		−1.00	−0.81		
COc1nc(-c2cnc(C(F)(F)F)nc2)ccc1NC(=O)c1c(-c2ccccc2)noc1C [Example 53, N-[2-Methoxy-6-[2-(trifluoromethyl)pyrimidin-5-yl]-3-pyridyl]-5-methyl-3-phenyl-isoxazole-4-carboxamide]	2.4 nM		−0.83		−0.92	
COc1nc(-c2cnc(N)cn2)ccc1NC(=O)c1c(-c2ccccc2)noc1C.Cl [Example 55, N-[6-(5-Aminopyrazin-2-yl)-2-methoxy-3-pyridyl]-5-methyl-3-phenyl-isoxazole-4-carboxamide hydrochloride]	3.4 nM	−0.92	−0.93			
COc1nc(-c2cnc(N)nc2)cnc1NC(=O)c1c(-c2ccccc2)noc1C [Example 67, N-[5-(2-Aminopyrimidin-5-yl)-3-methoxy-pyrazin-2-yl]-5-methyl-3-phenyl-isoxazole-4-carboxamide]	0.6 nM		−1.14	−0.94		
COc1nc(-c2cnoc2)ccc1NC(=O)c1c(-c2ccccc2)noc1C [Example 68, N-(6-Isoxazol-4-yl-2-methoxy-3-pyridyl)-5-methyl-3-phenyl-isoxazole-4-carboxamide]	3.2 nM	−0.66	−0.56			
COc1nc(-c2cnc(CN(C)C)nc2)ccc1NC(=O)c1c(-c2ccccc2)noc1C [Example 74, N-[6-[2-[(Dimethylamino)methyl]pyrimidin-5-yl]-2-methoxy-3-pyridyl]-5-methyl-3-phenyl-isoxazole-4-carboxamide]	2.1 nM		−0.62		−1.00	
COc1nc(-c2cnn3ncccc23)ccc1NC(=O)c1c(-c2ccccc2)noc1C [Example 83, N-(2-Methoxy-6-(pyrazolo[1,5-b]pyridazin-3-yl)pyridin-3-yl)-5-methyl-3-phenylisoxazole-4-carboxamide]	13 nM		−0.50			−0.71
COc1nc(-c2cnc(N3CCC(O)CC3)nc2)ccc1NC(=O)c1c(-c2ccccc2)noc1C [Example 85, N-(6-(2-(4-Hydroxypiperidin-1-yl)pyrimidin-5-yl)-2-methoxypyridin-3-yl)-5-methyl-3-phenylisoxazole-4-carboxamide]	1.7 nM		−0.94		−0.92	
COc1nc(-c2cncc(OC(F)F)c2)ccc1NC(=O)c1c(-c2ccccc2)noc1C [Example 87, N-(5′-(Difluoromethoxy)-6-methoxy-[2,3′-bipyridin]-5-yl)-5-methyl-3-phenylisoxazole-4-carboxamide]	5 nM	−0.71	−0.44			
COc1nc(-c2ccc(N)nc2)ccc1NC(=O)c1c(-c2ccccc2)noc1C [Example 89, N-(6′-Amino-6-methoxy-[2,3′-bipyridin]-5-yl)-5-methyl-3-phenylisoxazole-4-carboxamide]	3.1 nM	−0.64	−0.62			
COc1nc(-c2cnc(O)c(C(F)(F)F)c2)ccc1NC(=O)c1c(-c2ccccc2)noc1C [Example 107, N-(6′-Hydroxy-6-methoxy-5′-(trifluoromethyl)-[2,3′-bipyridin]-5-yl)-5-methyl-3-phenylisoxazole-4-carboxamide]	13.5 nM		−0.47			−0.66
COc1nc(-c2ccc(CN3CC4COCC(C4)C3)cc2)ccc1NC(=O)c1c(-c2ccccc2)noc1C [Example 228, N-[2-methoxy-6-[4-(3-oxa-7-azabicyclo[3.3.1]nonan-7-ylmethyl)phenyl]-3-pyridyl]-5-methyl-3-phenyl-isoxazole-4-carboxamide]	1.3 nM		−0.68			
COc1nc(-c2cnoc2)ncc1NC(=O)c1c(-c2ccccc2)noc1C [Example 229, N-(2-isoxazol-4-yl-4-methoxy-pyrimidin-5-yl)-5-methyl-3-phenyl-isoxazole-4-carboxamide]	87.4 nM		−0.79			
COc1nc(-c2ccc(CN3CCOCC3)nc2)ccc1NC(=O)c1c(-c2ccccc2)noc1C [Example 230, N-(6-methoxy-6′-(morpholinomethyl)-[2,3′-bipyridin]-5-yl)-5-methyl-3-phenyl-isoxazole-4-carboxamide]	1.4 nM		−1.10			
COc1nc(-c2ccc(CN3CC4(COC4)C3)nc2)ccc1NC(=O)c1c(-c2ccccc2)noc1C [Example 231, N-(6′-((2-oxa-6-azaspiro[3.3]heptan-6-yl)methyl)-6-methoxy-[2,3′-bipyridin]-5-yl)-5-methyl-3-phenylisoxazole-4-carboxamide]	1.3 nM		−1.00			
COc1nc(-c2ccc(CN3CC4COCC(C4)C3)nc2)ccc1NC(=O)c1c(-c2ccccc2)noc1C [Example 232, N-(6′-((3-oxa-7-azabicyclo[3.3.1]nonan-7-yl)methyl)-6-methoxy-[2,3′-bipyridin]-5-yl)-5-methyl-3-phenylisoxazole-4-carboxamide]	0.6 nM		−0.73			
